The values below come from PMC3660741, “Structure of a pore-blocking toxin in complex with a eukaryotic voltage-dependent K^+ channel” (eLife, 2013).

One assay deals with Phe425Gly(Shaker). As to conditions: Gly10Val(AgTx2)–Phe425Gly(Shaker) pair; ref Ranganathan et al., 1996; cited from earlier work. An excerpt:
(§1) From analyzing mutants of AgTx2 and Shaker, MacKinnon and Ranganathan derived a coupling energy of >3 kT for the Gly10Val(AgTx2)–Phe425Gly(Shaker) pair and ∼1.5 kT for the Gly10Val(AgTx2)–Thr449Cys(Shaker) pair ([Ranganathan et al., 1996]). Phe425 and Thr449 in Shaker map onto Gln353 and Val377 in paddle chimera (Figure 2B).

A further assay deals with Thr449Cys(Shaker). The conditions noted are these: Gly10Val(AgTx2)–Thr449Cys(Shaker) pair; ref Ranganathan et al., 1996; cited from earlier work.
Text: as §1

The test system of the next assay is Tyr445Phe(Shaker). The conditions noted are these: ref Ranganathan et al., 1996, cited from earlier work. An excerpt:
Another case worth highlighting is the coupling energy, ∼1.5 kT, between the Lys27Met(AgTx2)–Tyr445Phe(Shaker) pair. Tyr445 in Shaker maps to Tyr373 in paddle chimera (Figure 2B; [Ranganathan et al., 1996]). Since mutation of Tyr to Phe incurs only a loss of the hydroxyl group, one likely interpretation of this would have been that Lys27 contacts the hydroxyl group of Tyr445. Intriguingly, Lys27 only contacts the backbone carbonyl oxygen of Tyr445, a point farthest from the hydroxyl group (Figure 10B). However, since this is a tightly packed part of the protein structure with the hydroxyl grou ...

The target of assay [1] is Kv2.1 paddle–Kv1.2 chimera channel in complex with the rat β2-core subunit (rat) (UniProt P63142). Description: planar lipid bilayer electrophysiology (inhibition of channel current).
A further assay relates to Shaker K+ channel. As to conditions: cited from earlier work. An excerpt: In studies with the BK channel, [MacKinnon and Miller (1988)] first observed that permeant ions coming through the channel from the intracellular side enhance the dissociation of a toxin bound to its receptor on the extracellular side.
For the next assay, the system named is BK channel. The conditions noted are these: 1988, cited from earlier work. An excerpt:
Charybdotoxin (CTX; Figure 1B), a pore-blocking toxin for K^+ channels, is a 37-residue peptide isolated from the venom of the scorpion Leiurus quinquestriatus ([Miller et al., 1985]).

Assay [2] concerns the target T1, Kv2.1 paddle–Kv1.2 chimera channel (paddle chimera) (Rattus norvegicus, UniProt P63142, DEL270-295/F267Y/F302L/I268V/INS296[…]/L298I/N207Q/V299M/V301I).
T1 construct: made in house; host or cells: Pichia pastoris
Description: CTX inhibition of paddle chimera in planar lipid bilayer, dose-response fitted for Kd. Type of assay: biochemical. As to conditions: CsCl vs KCl on both sides; planar bilayer of 20 mg/ml DPhPC; holding −110 mV, pulsed to +110 mV; n = 2–4. An excerpt:
Figure 8. Effects of Lys27Met mutation of CTX and Cs^+ separately on toxin-channel interactions. (A) CTX inhibition. The fraction of unblocked current (I/Imax, mean ± SEM or range of mean; n = 2–4) is graphed as a function of CTX concentration (in nM) and fit to the equation I/Imax = 0.1 + 0.9 × (1 + [CTX]/Kd)^−1. Voltage pulses: holding −110 mV, depolarized to +110 mV, followed by a step back to −110 mV. Paddle chimera–wild-type CTX with KCl on both sides is shown in red, paddle chimera–wild-type CTX with CsCl on both sides is shown in blue and paddle chimera–Lys27Met CTX with KCl on both sides is shown in black. The modified equation accounts for approximately 10% current that is due largely to the channels facing the other side and are not blocked by toxin. (B) The pore domains from two diagonal subunits of paddle chimera (molecule A) in the Lys27MetCTX–paddle chimera complex are shown in green α carbon trace and a toxin-omit weighted 2Fo − Fc electron density map is shown in wire mesh at 1σ contour level. […]
The membranes were held at −110 mV and repeatedly pulsed to +110 mV test voltage. CTX inhibition data measured with different concentrations of CTX or Lys27Met mutant of CTX were fit to the equation: I/Imax=0.1+0.9×(1+[CTX]/Kd)^−1. […]

For the next assay, the target named is paddle chimera. The conditions noted are these: planar lipid bilayers; ref Tao and MacKinnon, 2008; read-out: Kd (inhibition of paddle chimera); cited from earlier work.

T1 sequence (P63142 with tags, fused parts or gaps with the stated changes): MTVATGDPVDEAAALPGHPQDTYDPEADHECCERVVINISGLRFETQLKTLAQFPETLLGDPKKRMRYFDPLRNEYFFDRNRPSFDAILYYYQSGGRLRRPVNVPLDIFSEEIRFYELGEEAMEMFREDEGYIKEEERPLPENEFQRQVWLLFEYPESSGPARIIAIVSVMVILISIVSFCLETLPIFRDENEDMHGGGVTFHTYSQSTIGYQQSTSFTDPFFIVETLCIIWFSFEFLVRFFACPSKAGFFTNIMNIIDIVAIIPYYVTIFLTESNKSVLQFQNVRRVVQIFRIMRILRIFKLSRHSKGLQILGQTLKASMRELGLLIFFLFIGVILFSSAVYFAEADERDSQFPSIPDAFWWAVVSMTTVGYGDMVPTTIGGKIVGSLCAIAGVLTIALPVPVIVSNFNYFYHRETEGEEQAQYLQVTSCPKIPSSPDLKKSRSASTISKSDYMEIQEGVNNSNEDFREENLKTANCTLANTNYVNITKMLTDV
T1 sequence (P62483 36-367 partner limits assumed): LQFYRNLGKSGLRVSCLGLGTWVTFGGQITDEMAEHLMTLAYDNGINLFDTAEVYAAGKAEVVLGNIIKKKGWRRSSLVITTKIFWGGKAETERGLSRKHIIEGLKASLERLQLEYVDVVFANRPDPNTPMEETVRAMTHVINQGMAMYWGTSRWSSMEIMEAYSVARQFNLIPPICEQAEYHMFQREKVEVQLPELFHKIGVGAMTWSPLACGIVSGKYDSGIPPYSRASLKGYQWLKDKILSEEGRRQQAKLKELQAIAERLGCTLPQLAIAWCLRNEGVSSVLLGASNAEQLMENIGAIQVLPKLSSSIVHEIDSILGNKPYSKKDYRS
Chain of charybdotoxin, wild type (P13487 23-59): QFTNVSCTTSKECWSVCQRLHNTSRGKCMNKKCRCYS

On to “Gly10Val(AgTx2): Gly10Val mutant of AgTx2 (Ranganathan et al., 1996)”, for which the coupling energy with Phe425Gly(Shaker) is over 3 kT; with Thr449Cys(Shaker), about 1.5 kT.
As for “Lys27Met(AgTx2): Lys27Met mutant of AgTx2 (Ranganathan et al., 1996)”, the “K+ dependence of the interaction between the two residues” value in the assay with Tyr445Phe(Shaker) (Lys27 (AgTx2) and Tyr445 (Shaker)) is recorded as “dependent on the K^+ concentration”. Also, the coupling energy with Tyr445Phe(Shaker) (Lys27Met(AgTx2)–Tyr445Phe(Shaker) pair) is listed as about 1.5 kT.
In the case of “charybdotoxin, wild type (from UniProt P13487 23-59) (peptide)”, in assay [1], the fold reduction of affinity in Cs+ against K+ stood at 10 fold.
Consider “mutation of Lys27 to Arginine: conservative mutation of Lys27 to Arginine, literature CTX mutant (Goldstein et al., 1994)”, for which, in the assay with Shaker K+ channel (conservative mutation of Lys27 to Arginine, Shaker, ref Goldstein et al., 1994), the “destabilization of the toxin-channel complex” value is recorded as about 1000 fold.
For charybdotoxin [CTX], in the assay on BK channel (ref Anderson et al.), the “channel states competent for toxin binding” value is “both the open and closed states of the channel are competent for toxin binding”; the “role of electrostatic interactions in affinity” value was “electrostatic interactions play an important role in enhancing the toxin’s affinity”. Also, the “voltage dependence of affinity” value with BK channel (results from trans-enhanced dissociation by permeant ions entering from the intracellular side, ref MacKinnon and Miller) is given as “voltage dependent”. In addition, the “reduction in affinity in the presence of Cs+ compared to K+” value in assay [2] was about 10 fold. The Kd (commonly the concentration at which binding is half-saturated) at paddle chimera was about 20 nM. The “trans-enhanced dissociation effect of permeant ions on CTX block” value with Shaker K+ channel (ref Goldstein and Miller, 1993) was “subsequently confirmed for Shaker as well”.
